# Assays:
# southern crabgrass [1] = experiment: Test Example 4: herbicidal effect by soil treatment (Table 19, symbol F); format: in vivo, southern crabgrass (Digitaria ciliaris); settings: amount of applied herbicide 320 g/ha
# Summary of the method: (§1)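 Scoring uses the grading scale of an earlier test, three weeks post-application. Treatment consists of spraying a diluted emulsion formulation across the surface of sterilized diluvial soil in which seeds are buried near 1.5 cm deep; boxes are kept in a greenhouse between 25° C. and 30° C.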
# Italian ryegrass [2] = experiment: Test Example 5: herbicidal effect by foliage application, plastic box (Table 20, symbol K); format: in vivo, Italian ryegrass (Lolium multiflorum); settings: foliage application, evaluated three weeks after application
# Summary of the method: (§2)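 Post-emergence foliar test in sterilized diluvial soil. Compound applied as water-diluted emulsion at a predetermined rate to 14-day-old plants; evaluation at three weeks.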
# Chinese sprangletop = experiment: Test Example 3: herbicidal effect by foliage application, Wagner pot (Table 18, symbol D); format: in vivo, chinese sprangletop (Leptochloa chinensis); settings: amount of applied herbicide 320 g/ha
# Summary of the method: (§3)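 Plants were sown in alluvial soil held under 0.1–0.5 cm standing water and grown 14 days in a greenhouse at 25–30 °C. An emulsifiable formulation, water-diluted to the set dose, was then sprayed onto the foliage, and effects were scored three weeks later using previously defined criteria.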
# wild oat [3] = experiment: Test Example 5: herbicidal effect by foliage application, plastic box (Table 20, symbol I); format: in vivo, wild oat (Avena fatua); settings: foliage application, evaluated three weeks after application
# Summary of the method: as §2
# barnyard grass [4] = experiment: Test Example 4: herbicidal effect by soil treatment (Table 19, symbol H); format: in vivo, barnyard grass (Echinochloa crus-galli); settings: amount of applied herbicide 320 g/ha
# Summary of the method: as §1
# redroot pigweed [5] = experiment: Test Example 4: herbicidal effect by soil treatment (Table 19, symbol N); format: in vivo, redroot pigweed (Amaranthus retroflexus); settings: amount of applied herbicide 320 g/ha
# Summary of the method: as §1
# rice flat sedge = experiment: Test Example 3: herbicidal effect by foliage application, Wagner pot (Table 18, symbol E); format: in vivo, rice flat sedge (Cyperus iria); settings: amount of applied herbicide 320 g/ha
# Summary of the method: as §3
# blackgrass [6] = experiment: Test Example 4: herbicidal effect by soil treatment (Table 19, symbol J); format: in vivo, blackgrass (Alopecurus myosuroides); settings: amount of applied herbicide 320 g/ha
# Summary of the method: as §1
# green foxtail [7] = experiment: Test Example 5: herbicidal effect by foliage application, plastic box (Table 20, symbol G); format: in vivo, green foxtail (Setaria viridis); settings: foliage application, evaluated three weeks after application
# Summary of the method: as §2
# windgrass [8] = experiment: Test Example 5: herbicidal effect by foliage application, plastic box (Table 20, symbol L); format: in vivo, windgrass (Apera spica-venti); settings: foliage application, evaluated three weeks after application
# Summary of the method: as §2
# chickweed [9] = experiment: Test Example 4: herbicidal effect by soil treatment (Table 19, symbol P); format: in vivo, common chickweed (Stellaria media); settings: amount of applied herbicide 320 g/ha
# Summary of the method: as §1
# chickweed [10] = experiment: Test Example 5: herbicidal effect by foliage application, plastic box (Table 20, symbol P); format: in vivo, common chickweed (Stellaria media); settings: foliage application, evaluated three weeks after application
# Summary of the method: as §2
# velvetleaf [11] = experiment: Test Example 5: herbicidal effect by foliage application, plastic box (Table 20, symbol M); format: in vivo, velvetleaf (Abutilon theophrasti); settings: foliage application, evaluated three weeks after application
# Summary of the method: as §2
# barnyard grass [12] = experiment: Test Example 5: herbicidal effect by foliage application, plastic box (Table 20, symbol H); format: in vivo, barnyard grass (Echinochloa crus-galli); settings: foliage application, evaluated three weeks after application
# Summary of the method: as §2
# Italian ryegrass [13] = experiment: Test Example 4: herbicidal effect by soil treatment (Table 19, symbol K); format: in vivo, Italian ryegrass (Lolium multiflorum); settings: amount of applied herbicide 320 g/ha
# Summary of the method: as §1
# wild oat [14] = experiment: Test Example 4: herbicidal effect by soil treatment (Table 19, symbol I); format: in vivo, wild oat (Avena fatua); settings: amount of applied herbicide 320 g/ha
# Summary of the method: as §1
# persian speedwell [15] = experiment: Test Example 5: herbicidal effect by foliage application, plastic box (Table 20, symbol R); format: in vivo, Persian speedwell (Veronica persica); settings: foliage application, evaluated three weeks after application
# Summary of the method: as §2
# green foxtail [16] = experiment: Test Example 4: herbicidal effect by soil treatment (Table 19, symbol G); format: in vivo, green foxtail (Setaria viridis); settings: amount of applied herbicide 320 g/ha
# Summary of the method: as §1
# lambsquarters [17] = experiment: Test Example 4: herbicidal effect by soil treatment (Table 19, symbol O); format: in vivo, lambsquarters (Chenopodium album); settings: amount of applied herbicide 320 g/ha
# Summary of the method: as §1
# false cleavers = experiment: Test Example 4: herbicidal effect by soil treatment (Table 19, symbol Q); format: in vivo, false cleavers (Galium spurium); settings: amount of applied herbicide 320 g/ha
# Summary of the method: as §1
# windgrass [18] = experiment: Test Example 4: herbicidal effect by soil treatment (Table 19, symbol L); format: in vivo, windgrass (Apera spica-venti); settings: amount of applied herbicide 320 g/ha
# Summary of the method: as §1
# velvetleaf [19] = experiment: Test Example 4: herbicidal effect by soil treatment (Table 19, symbol M); format: in vivo, velvetleaf (Abutilon theophrasti); settings: amount of applied herbicide 320 g/ha
# Summary of the method: as §1
# lambsquarters [20] = experiment: Test Example 5: herbicidal effect by foliage application, plastic box (Table 20, symbol O); format: in vivo, lambsquarters (Chenopodium album); settings: foliage application, evaluated three weeks after application
# Summary of the method: as §2
# blackgrass [21] = experiment: Test Example 5: herbicidal effect by foliage application, plastic box (Table 20, symbol J); format: in vivo, blackgrass (Alopecurus myosuroides); settings: foliage application, evaluated three weeks after application
# Summary of the method: as §2
# southern crabgrass [22] = experiment: Test Example 5: herbicidal effect by foliage application, plastic box (Table 20, symbol F); format: in vivo, southern crabgrass (Digitaria ciliaris); settings: foliage application, evaluated three weeks after application
# Summary of the method: as §2
# redroot pigweed [23] = experiment: Test Example 5: herbicidal effect by foliage application, plastic box (Table 20, symbol N); format: in vivo, redroot pigweed (Amaranthus retroflexus); settings: foliage application, evaluated three weeks after application
# Summary of the method: as §2
# persian speedwell [24] = experiment: Test Example 4: herbicidal effect by soil treatment (Table 19, symbol R); format: in vivo, Persian speedwell (Veronica persica); settings: amount of applied herbicide 320 g/ha
# Summary of the method: as §1
# barnyard grass [25] = experiment: Test Example 3: herbicidal effect by foliage application, Wagner pot (Table 18, symbol H); format: in vivo, barnyard grass (Echinochloa crus-galli); settings: amount of applied herbicide 320 g/ha
# Summary of the method: as §3
structure (smiles),measurement,setting,value
CCCC(=O)Oc1c(C)nn(C)c(=O)c1-c1c(-c2ccc3c(c2)OCO3)sc2ccc(C)cc12 [2-157],"F: southern crabgrass, herbicidal effect rating",southern crabgrass [1],0 (Herbicidal rate of 5% or less (almost no effect))
same,herbicidal effect on K: Italian ryegrass (criteria 0-5),Italian ryegrass [2]; 320 g/ha,0 (Herbicidal rate of 5% or less (almost no effect))
same,herbicidal effect on D: Chinese sprangletop,Chinese sprangletop,0 (Herbicidal rate of 5% or less (almost no effect))
same,herbicidal effect on I: wild oat (criteria 0-5),wild oat [3]; 320 g/ha,0 (Herbicidal rate of 5% or less (almost no effect))
same,"H: barnyard grass, herbicidal effect rating",barnyard grass [4],0 (Herbicidal rate of 5% or less (almost no effect))
same,"N: redroot pigweed, herbicidal effect rating",redroot pigweed [5],0 (Herbicidal rate of 5% or less (almost no effect))
same,herbicidal effect on E: rice flat sedge,rice flat sedge,0 (Herbicidal rate of 5% or less (almost no effect))
same,"J: blackgrass, herbicidal effect rating",blackgrass [6],0 (Herbicidal rate of 5% or less (almost no effect))
same,herbicidal effect on G: green foxtail (criteria 0-5),green foxtail [7]; 320 g/ha,0 (Herbicidal rate of 5% or less (almost no effect))
same,herbicidal effect on L: windgrass (criteria 0-5),windgrass [8]; 320 g/ha,0 (Herbicidal rate of 5% or less (almost no effect))
same,"P: chickweed, herbicidal effect rating",chickweed [9],4 (Herbicidal rate of 70% or more and less than 90%)
same,herbicidal effect on P: chickweed (criteria 0-5),chickweed [10]; 320 g/ha,0 (Herbicidal rate of 5% or less (almost no effect))
same,herbicidal effect on M: velvetleaf (criteria 0-5),velvetleaf [11]; 320 g/ha,0 (Herbicidal rate of 5% or less (almost no effect))
same,herbicidal effect on H: barnyard grass (criteria 0-5),barnyard grass [12]; 320 g/ha,0 (Herbicidal rate of 5% or less (almost no effect))
same,"K: Italian ryegrass, herbicidal effect rating",Italian ryegrass [13],0 (Herbicidal rate of 5% or less (almost no effect))
same,"I: wild oat, herbicidal effect rating",wild oat [14],0 (Herbicidal rate of 5% or less (almost no effect))
same,herbicidal effect on R: persian speedwell (criteria 0-5),persian speedwell [15]; 320 g/ha,4 (Herbicidal rate of 70% or more and less than 90%)
same,"G: green foxtail, herbicidal effect rating",green foxtail [16],0 (Herbicidal rate of 5% or less (almost no effect))
same,"O: lambsquarters, herbicidal effect rating",lambsquarters [17],0 (Herbicidal rate of 5% or less (almost no effect))
same,"Q: false cleavers, herbicidal effect rating",false cleavers,0 (Herbicidal rate of 5% or less (almost no effect))
same,"L: windgrass, herbicidal effect rating",windgrass [18],0 (Herbicidal rate of 5% or less (almost no effect))
same,"M: velvetleaf, herbicidal effect rating",velvetleaf [19],0 (Herbicidal rate of 5% or less (almost no effect))
same,herbicidal effect on O: lambsquarters (criteria 0-5),lambsquarters [20]; 320 g/ha,0 (Herbicidal rate of 5% or less (almost no effect))
same,herbicidal effect on J: blackgrass (criteria 0-5),blackgrass [21]; 320 g/ha,0 (Herbicidal rate of 5% or less (almost no effect))
same,herbicidal effect on F: southern crabgrass (criteria 0-5),southern crabgrass [22]; 320 g/ha,0 (Herbicidal rate of 5% or less (almost no effect))
same,herbicidal effect on N: redroot pigweed (criteria 0-5),redroot pigweed [23]; 320 g/ha,3 (Herbicidal rate of 40% or more and less than 70%)
same,"R: persian speedwell, herbicidal effect rating",persian speedwell [24],3 (Herbicidal rate of 40% or more and less than 70%)
same,herbicidal effect on H: barnyard grass,barnyard grass [25],3 (Herbicidal rate of 40% or more and less than 70%)
CCn1nc(C)c(O)c(-c2c(-c3ccccc3OC)sc3ccc(F)cc23)c1=O [2-404],"herbicidal effect, F: southern crabgrass",southern crabgrass [1],0 (Herbicidal rate of 5% or less (almost no effect))
same,"K: Italian ryegrass, herbicidal effect (criteria 0-5)",Italian ryegrass [2]; AAH 320 g/ha,0 (Herbicidal rate of 5% or less (almost no effect))
same,herbicidal effect on D: Chinese sprangletop,Chinese sprangletop,0 (Herbicidal rate of 5% or less (almost no effect))
same,"I: wild oat, herbicidal effect (criteria 0-5)",wild oat [3]; AAH 320 g/ha,0 (Herbicidal rate of 5% or less (almost no effect))
same,"herbicidal effect, H: barnyard grass",barnyard grass [4],0 (Herbicidal rate of 5% or less (almost no effect))
same,"herbicidal effect, N: redroot pigweed",redroot pigweed [5],3 (Herbicidal rate of 40% or more and less than 70%)
same,herbicidal effect on E: rice flat sedge,rice flat sedge,3 (Herbicidal rate of 40% or more and less than 70%)
same,"herbicidal effect, J: blackgrass",blackgrass [6],0 (Herbicidal rate of 5% or less (almost no effect))
same,"G: green foxtail, herbicidal effect (criteria 0-5)",green foxtail [7]; AAH 320 g/ha,1 (Herbicidal rate of 5% or more and less than 20%)
same,"L: windgrass, herbicidal effect (criteria 0-5)",windgrass [8]; AAH 320 g/ha,0 (Herbicidal rate of 5% or less (almost no effect))
same,"herbicidal effect, P: chickweed",chickweed [9],0 (Herbicidal rate of 5% or less (almost no effect))
same,"P: chickweed, herbicidal effect (criteria 0-5)",chickweed [10]; AAH 320 g/ha,5 (Herbicidal rate of 90% or more (almost completely withered))
same,"M: velvetleaf, herbicidal effect (criteria 0-5)",velvetleaf [11]; AAH 320 g/ha,3 (Herbicidal rate of 40% or more and less than 70%)
same,"H: barnyard grass, herbicidal effect (criteria 0-5)",barnyard grass [12]; AAH 320 g/ha,3 (Herbicidal rate of 40% or more and less than 70%)
same,"herbicidal effect, K: Italian ryegrass",Italian ryegrass [13],0 (Herbicidal rate of 5% or less (almost no effect))
same,"herbicidal effect, I: wild oat",wild oat [14],0 (Herbicidal rate of 5% or less (almost no effect))
same,"R: persian speedwell, herbicidal effect (criteria 0-5)",persian speedwell [15]; AAH 320 g/ha,5 (Herbicidal rate of 90% or more (almost completely withered))
same,"herbicidal effect, G: green foxtail",green foxtail [16],0 (Herbicidal rate of 5% or less (almost no effect))
same,"herbicidal effect, O: lambsquarters",lambsquarters [17],3 (Herbicidal rate of 40% or more and less than 70%)
same,"herbicidal effect, Q: false cleavers",false cleavers,0 (Herbicidal rate of 5% or less (almost no effect))
same,"herbicidal effect, L: windgrass",windgrass [18],0 (Herbicidal rate of 5% or less (almost no effect))
same,"herbicidal effect, M: velvetleaf",velvetleaf [19],0 (Herbicidal rate of 5% or less (almost no effect))
same,"O: lambsquarters, herbicidal effect (criteria 0-5)",lambsquarters [20]; AAH 320 g/ha,3 (Herbicidal rate of 40% or more and less than 70%)
same,"J: blackgrass, herbicidal effect (criteria 0-5)",blackgrass [21]; AAH 320 g/ha,0 (Herbicidal rate of 5% or less (almost no effect))
same,"F: southern crabgrass, herbicidal effect (criteria 0-5)",southern crabgrass [22]; AAH 320 g/ha,2 (Herbicidal rate of 20% or more and less than 40%)
same,"N: redroot pigweed, herbicidal effect (criteria 0-5)",redroot pigweed [23]; AAH 320 g/ha,5 (Herbicidal rate of 90% or more (almost completely withered))
same,"herbicidal effect, R: persian speedwell",persian speedwell [24],0 (Herbicidal rate of 5% or less (almost no effect))
same,herbicidal effect on H: barnyard grass,barnyard grass [25],3 (Herbicidal rate of 40% or more and less than 70%)

# — patent US20230085307A1, “PYRIDAZINONE COMPOUND AND HERBICIDE” (NISSAN CHEMICAL CORPORATION, priority 2019, published 2023)
